Test results reported in PMC6921279 (Frontiers in Endocrinology, 2019).

System: EGF-stimulated ERK1/2 phosphorylation
Assay: Modulation of EGF-stimulated ERK1/2 phosphorylation in COS-7 cells
Type: cell-based
Settings: wortmannin 100 nM, 30 min pretreatment; 10 ng/ml EGF, 10 min
Description: COS-7 cells (from the American Type Culture Collection) were cultured at 37°C in a humidified atmosphere of 95% air, 5% CO2, in DMEM supplemented with 10% FBS, 100 μg/ml streptomycin, and 100 units/ml penicillin (COS-7 growth medium). Transient transfections were performed using LipofectAMINE (Life Technologies: Gaithersburg, MD) as described previously ([27]). Cells were seeded at 8 × 10^5 cells/10-cm dish in COS-7 medium and cultured for 3 days before transfection. COS-7 cells were transfected in 5 ml/dish OptiMEM containing 10 μg/ml LipofectAMINE with empty vector, pcDNA3 encoding the HA-CRF1R or the HA-CRF1R-Δ386 mutant. […] After replacing the transfection medium with fresh growth medium, transfected COS-7 cells were cultured for 1 day. […]
The protocols for measuring total and phosphorylated ERK1/2, c-Src, PYK2, Akt, and EGFR have been previously published ([28], [29]). […] The labeled bands were quantified using the Quantity One 4.6.3 software program (Bio-Rad).
Figure 3 Involvement of EGFR transactivation in CRF-stimulated ERK1/2 phosphorylation. […] Total cell lysates were separated by SDS-PAGE and analyzed by immunoblotting with anti-p-ERK1/2 Thr^202/Tyr^204 (A–D) or anti-p-EGFR Tyr^1068 (E), as described in Materials and Methods. ERK1/2 and EGFR phosphorylation were quantitated by densitometry, and mean values were plotted from three to five independent experiments. […]

COC[C@H]1OC(=O)c2coc3c2[C@@]1(C)C1=C(C3=O)[C@@H]2CCC(=O)[C@@]2(C)C[C@H]1OC(C)=O [wortmannin]
effect on EGF-stimulated ERK1/2 phosphorylation: unable to inhibit the effect of EGF
